From ChEMBL document CHEMBL3880386, “Combination comprising the MEK inhibitor N-{3-[3-cyclopropyl-5-(2-fluoro-4-iodo- phenylamino)-6,8-dimethyl-2,4,7-trioxo-3,4,6,7-tetrahydro-2H-pyrido[4,3-d]pyrimidin-1-yl]phenyl}acetamide and the Akt inhibitor N-{(1S)-2-amino-1-[(3-fluorophenyl)methyl]ethyl}-5-chloro-4-(4-chloro-1- …” (2014)

Assays:
[1] = Growth inhibition of human MDA-MB-175-VII cells incubated for 72 hrs by Cell-titer-Glo reagent based assay; type: functional
[2] = Growth inhibition of human EFM19 cells incubated for 72 hrs by Cell-titer-Glo reagent based assay; type: functional; conditions: EFM-19, 72 h
[3] = Growth inhibition of human RKO cells incubated for 72 hrs by Cell-titer-Glo reagent based assay; type: functional
[4] = Growth inhibition of human DLD1 cells incubated for 72 hrs by Cell-titer-Glo reagent based assay; type: functional; conditions: DLD-1, 72 h
[5] = Growth inhibition of human T84 cells incubated for 72 hrs by Cell-titer-Glo reagent based assay; type: functional; conditions: T84, 72 h
[6] = Growth inhibition of human KM12 cells incubated for 72 hrs by Cell-titer-Glo reagent based assay; type: functional; conditions: KM12, 72 h
[7] = Growth inhibition of human SW837 cells incubated for 72 hrs by Cell-titer-Glo reagent based assay; type: functional; conditions: SW837, 72 h
[8] = Growth inhibition of human LS1034 cells incubated for 72 hrs by Cell-titer-Glo reagent based assay; type: functional; conditions: LS-1034, 72 h
[9] = Growth inhibition of human COLO205 cells incubated for 72 hrs by Cell-titer-Glo reagent based assay; type: functional; conditions: COLO 205, 72 h
[10] = Growth inhibition of human SW1463 cells incubated for 72 hrs by Cell-titer-Glo reagent based assay; type: functional; conditions: SW1463, 72 h
[11] = Growth inhibition of human HT-29 cells incubated for 72 hrs by Cell-titer-Glo reagent based assay; type: functional; conditions: HT-29, 72 h
[12] = Growth inhibition of human SW480 cells incubated for 72 hrs by Cell-titer-Glo reagent based assay; type: functional; conditions: SW480, 72 h
[13] = Growth inhibition of human SW1417 cells incubated for 72 hrs by Cell-titer-Glo reagent based assay; type: functional; conditions: SW1417, 72 h
[14] = Growth inhibition of human A549 cells incubated for 72 hrs by Cell-titer-Glo reagent based assay; type: functional; conditions: A549, 72 h
[15] = Growth inhibition of human NCI-H1355 cells incubated for 72 hrs by Cell-titer-Glo reagent based assay; type: functional; conditions: NCI-H1355, 72 h
[16] = Growth inhibition of human NCI-H1792 cells incubated for 72 hrs by Cell-titer-Glo reagent based assay; type: functional; conditions: NCI-H1792, 72 h
[17] = Growth inhibition of human NCI-H23 cells incubated for 72 hrs by Cell-titer-Glo reagent based assay; type: functional; conditions: NCI-H23, 72 h
[18] = Growth inhibition of human MV522 cells incubated for 72 hrs by Cell-titer-Glo reagent based assay; type: functional; conditions: MV522, 72 h
[19] = Growth inhibition of human NCI-H1155 cells incubated for 72 hrs by Cell-titer-Glo reagent based assay; type: functional; conditions: NCI-H1155, 72 h
[20] = Growth inhibition of human SW1573 cells incubated for 72 hrs by Cell-titer-Glo reagent based assay; type: functional; conditions: SW1573, 72 h
[21] = Growth inhibition of human HOP62 cells incubated for 72 hrs by Cell-titer-Glo reagent based assay; type: functional; conditions: HOP-62, 72 h
[22] = Growth inhibition of human SW900 cells incubated for 72 hrs by Cell-titer-Glo reagent based assay; type: functional; conditions: SW900, 72 h
[23] = Growth inhibition of human A427 cells incubated for 72 hrs by Cell-titer-Glo reagent based assay; type: functional; conditions: A-427, 72 h
[24] = Growth inhibition of human HCC827 cells incubated for 72 hrs by Cell-titer-Glo reagent based assay; type: functional; conditions: HCC827, 72 h
[25] = Growth inhibition of human Calu3 cells incubated for 72 hrs by Cell-titer-Glo reagent based assay; type: functional; conditions: Calu-3, 72 h
[26] = Growth inhibition of human NCI-H727 cells incubated for 72 hrs by Cell-titer-Glo reagent based assay; type: functional; conditions: NCI-H727, 72 h
[27] = (§1) Growth inhibition of human KM12 cells at 1:10 molar ratio of compound in presence of N-{3-[3-cyclopropyl-5-(2-fluoro-4-iodo-phenylamino)-6,8-dimethyl- 2,4,7-trioxo-3,4,6,7-tetrahydro-2H-pyrido[4,3-d]pyrimidin-1-yl]phenyl}acetamide incubated for 72 hrs by Cell-titer-Glo reagent based assay; type: functional; conditions: KM12, 72 h
[28] = Growth inhibition of human Calu3 cells at 1:10 molar ratio of compound in presence of N-{3-[3-cyclopropyl-5-(2-fluoro-4-iodo-phenylamino)-6,8-dimethyl- 2,4,7-trioxo-3,4,6,7-tetrahydro-2H-pyrido[4,3-d]pyrimidin-1-yl]phenyl}acetamide incubated for 72 hrs by Cell-titer-Glo reagent based assay; type: functional; conditions: Calu-3, 72 h
[29] = Growth inhibition of human NCI-H727 cells at 1:10 molar ratio of compound in presence of N-{3-[3-cyclopropyl-5-(2-fluoro-4-iodo-phenylamino)-6,8-dimethyl- 2,4,7-trioxo-3,4,6,7-tetrahydro-2H-pyrido[4,3-d]pyrimidin-1-yl]phenyl}acetamide incubated for 72 hrs by Cell-titer-Glo reagent based assay; type: functional; conditions: NCI-H727, 72 h
[30] = as §1, with “Calu6” for “KM12”, “cells assessed combination index” for “cells”; type: functional, Calu-6
[31] = Growth inhibition of human T84 cells at 1:10 molar ratio of compound in presence of N-{(1S)-2-amino-1-[(3-fluorophenyl)methyl]ethyl}-5-chloro-4-(4-chloro-1-methyl-1H-pyrazol-5-yl)-2-thiophenecar- boxamide incubated for 72 hrs by Cell-titer-Glo reagent based assay; type: functional; conditions: T84, 72 h
[32] = Growth inhibition of human NCI-H1155 cells at 1:10 molar ratio of compound in presence of N-{(1S)-2-amino-1-[(3-fluorophenyl)methyl]ethyl}-5-chloro-4-(4-chloro-1-methyl-1H-pyrazol-5-yl)-2-thiophenecar- boxamide incubated for 72 hrs by Cell-titer-Glo reagent based assay; type: functional; conditions: NCI-H1155, 72 h
[33] = Growth inhibition of human NCI-H727 cells at 1:10 molar ratio of compound in presence of N-{(1S)-2-amino-1-[(3-fluorophenyl)methyl]ethyl}-5-chloro-4-(4-chloro-1-methyl-1H-pyrazol-5-yl)-2-thiophenecar- boxamide incubated for 72 hrs by Cell-titer-Glo reagent based assay; type: functional; conditions: NCI-H727, 72 h
[34] = Growth inhibition of human HCT8 cells assessed combination index at 1:10 molar ratio of compound in presence of N-{(1S)-2-amino-1-[(3-fluorophenyl)methyl]ethyl}-5-chloro-4-(4-chloro-1-methyl-1H-pyrazol-5-yl)-2-thiophenecar- boxamide incubated for 72 hrs by Cell-titer-Glo reagent based assay; type: functional, HCT-8
[35] = Growth inhibition of human COLO205 cells assessed combination index at 1:10 molar ratio of compound in presence of N-{(1S)-2-amino-1-[(3-fluorophenyl)methyl]ethyl}-5-chloro-4-(4-chloro-1-methyl-1H-pyrazol-5-yl)-2-thiophenecar- boxamide incubated for 72 hrs by Cell-titer-Glo reagent based assay; type: functional, COLO 205
[36] = Growth inhibition of human HT-29 cells assessed combination index at 1:10 molar ratio of compound in presence of N-{(1S)-2-amino-1-[(3-fluorophenyl)methyl]ethyl}-5-chloro-4-(4-chloro-1-methyl-1H-pyrazol-5-yl)-2-thiophenecar- boxamide incubated for 72 hrs by Cell-titer-Glo reagent based assay; type: functional

Structure (SMILES)	IC50 [1] [µM]	IC50 [2] [µM]	IC50 [3] [µM]	IC50 [4] [µM]	IC50 [5] [µM]	IC50 [6] [µM]	IC50 [7] [µM]	IC50 [8] [µM]	IC50 [9] [µM]	IC50 [10] [µM]	IC50 [11] [µM]	IC50 [12] [µM]	IC50 [13] [µM]	IC50 [14] [µM]	IC50 [15] [µM]	IC50 [16] [µM]	IC50 [17] [µM]	IC50 [18] [µM]	IC50 [19] [µM]	IC50 [20] [µM]	other results
Cn1ncc(Cl)c1-c1cc(C(=O)N[C@H](CN)Cc2cccc(F)c2)sc1Cl [AFURESERTIB]	0.794	0.43	1.81	> 10	> 10	2.25	> 10	4.34	2.57	9.72	1.38	> 10	> 10	5.99	6.69	7.31	7.12	3.04	0.865	> 8	IC50 [21]: > 10 µM; IC50 [22]: > 10 µM; IC50 [23]: > 8 µM; IC50 [24]: > 8 µM; IC50 [25]: > 8 µM; IC50 [26]: 4.8 µM; IC50 [27]: 0.104 µM; IC50 [28]: 0.392 µM; IC50 [29]: 0.019 µM; CI [30]: 0.79
CC(=O)Nc1cccc(-n2c(=O)n(C3CC3)c(=O)c3c(Nc4ccc(I)cc4F)n(C)c(=O)c(C)c32)c1 [TRAMETINIB]	0.096	> 1	0.018	0.632	0.061	0.023	0.074	0.005	0.001	0.004	0.002	0.037	0.003	0.034	0.052	0.053	0.029	0.002	> 1	> 1	IC50 [21]: > 1 µM; IC50 [22]: 0.127 µM; IC50 [23]: 0.022 µM; IC50 [24]: > 1 µM; IC50 [25]: 0.158 µM; IC50 [26]: 0.002 µM; IC50 [31]: 0.03 µM; IC50 [32]: 0.01 µM; IC50 [33]: 0.002 µM; CI [34]: 0.39; CI [35]: 0.88; CI [36]: 0.95
